Assay results as given in patent publication US20080171687A1, “Compositions And Methods For The Preparation And Administration Of Poorly Water Soluble Drugs” (Abraxis Bioscience, Inc., priority 2004, published 2008).
Converted amounts (≈) assume the structure as drawn.

Legend:
physchem = settings: organic solvent or mixture, thermodynamic from solid, Solubility In DMI (mg/ml)
[1] = solvent dimethyl isosorbide (DMI); dissolved with gentle heating as needed

| SMILES | solubility (physchem) | further results |
| --- | --- | --- |
| COc1ccc2[nH]cc(CCNC(C)=O)c2c1 [Melatonin] | 192 mg/mL (≈ 827 mM) |  |
| CCc1c2c(nc3ccc(O)cc13)-c1cc3c(c(=O)n1C2)COC(=O)[C@]3(O)CC [SN-38] |  | Solubility In DMI [1]: <1 mg/mL |
| COc1ccc2[nH]c([S+]([O-])Cc3ncc(C)c(OC)c3C)nc2c1 (centres unmarked) [Omeprazole] | 17.4 mg/mL (≈ 50.4 mM) |  |
| CC[C@@]1(O)C(=O)OCc2c1cc1n(c2=O)Cc2cc3ccccc3nc2-1 [Campothecin] |  | solubility (physchem; solvent dimethyl isosorbide (DMI), dissolved with gentle heating as needed): < 1 mg/mL |
| CC(C)c1cccc(C(C)C)c1O [Propofol] |  | Solubility In DMI (mg/ml) [1]: completely |
| CO[C@H]1C[C@@H]2CC[C@@H](C)[C@@](O)(O2)C(=O)C(=O)N2CCCC[C@H]2C(=O)O[C@H]([C@H](C)C[C@@H]2CC[C@@H](O)[C@H](OC)C2)CC(=O)[C@H](C)/C=C(\C)[C@@H](O)[C@@H](OC)C(=O)[C@H](C)C[C@H](C)/C=C/C=C/C=C/1C [Rapamycin] | 121 mg/mL (≈ 132 mM) |  |
| CC(=O)O[C@@]12CO[C@@H]1C[C@H](O)[C@@]1(C)C(=O)[C@H](O)C3=C(C)[C@@H](OC(=O)[C@H](O)[C@@H](NC(=O)OC(C)(C)C)c4ccccc4)C[C@@](O)([C@@H](OC(=O)c4ccccc4)[C@H]21)C3(C)C [Docetaxel] | 90 mg/mL (≈ 111 mM) |  |
| CCC(C)n1ncn(-c2ccc(N3CCN(c4ccc(OCC5COC(Cn6cncn6)(c6ccc(Cl)cc6Cl)O5)cc4)CC3)cc2)c1=O (centres unmarked) [Itraconazole] | 9.6 mg/mL (≈ 13.6 mM) |  |
